test system: not listed separately; experiment: Antidepressant activity in the behavioural despair test in the mouse; format: in vivo, mouse (male CD1); details: 5 min, 1 mg/kg IP, 5 minutes, read-out: Decrease in immobility (as %) vs the controls
Text: 5) Antidepressant activity in the "behavioural despair test" Another interesting aspect of the pharmacological activity of these products is the potent antidepressant activity which some of them display in an experimental model in the mouse, in which a state of depression is induced experimentally by the method of Porsolt et al. (Arch. Int. Pharmacodyn. 229, p. 327-336 (1977)). Male CDl mice which weighed about 20-25 g and had not fasted were used. The test consisted of inducing a state of depression in the animal which was subjected to forced swimming in a glass cylinder from which it could not escape. After a short period of vigorous activity the mouse adopted a characteristic posture of immobility which was easily identifiable; this immobility is reduced by antidepressant drugs. 1 l glass beakers, filled to 700 ml with water at a temperature of 25° C. were used for the test. The mice, 8 per group, were treated intraperitoneally with the drug under test, 30 minutes before the test. At time 0, each animal was immersed in a beaker and, after one minute during which all moved about swimming vigorously in order to escape, regardless of treatment, the observer, who was unaware of the treatment, assigned the following points: 0=animal immobile 1=minimum movement to remain afloat 2=vigorous swimming The greater the antidepressant activity of the drug, the more the animals will move about in order to try to escape from the water. The points were assigned every 15 sec for a total period of 5 min with a total of 20 observations. The antidepressant activity was determined with the use of various doses of the compound by the regression method as the ED50, that is, the dose in mg/kg of the compound which could antagonise the animal's immobility time by 50%.

Structure (SMILES) | inhibition in vivo at 1 mg/kg
N[C@@H](CCC(=O)O)C(=O)NCCC12CC3CC(CC(C3)C1)C2 [Compound 16] | 15%
N[C@@H](CC(=O)O)C(=O)NCCC12CC3CC(CC(C3)C1)C2 [Compound 43] | 0%

same assay, conditions: 5 min, 3 mg/kg IP, 5 minutes, read-out: Decrease in immobility (as %) vs the controls

Structure (SMILES) | inhibition in vivo at 3 mg/kg
N[C@@H](CCC(=O)O)C(=O)NCCC12CC3CC(CC(C3)C1)C2 [Compound 16] | 46%
N[C@@H](CC(=O)O)C(=O)NCCC12CC3CC(CC(C3)C1)C2 [Compound 43] | 34%

same assay, conditions: 5 min, 10 mg/kg IP, 5 minutes, read-out: Decrease in immobility (as %) vs the controls

Structure (SMILES) | inhibition in vivo at 10 mg/kg
N[C@@H](CCC(=O)O)C(=O)NCCC12CC3CC(CC(C3)C1)C2 [Compound 16] | 77%
N[C@@H](CC(=O)O)C(=O)NCCC12CC3CC(CC(C3)C1)C2 [Compound 43] | 60%

same assay, conditions: 5 min, 30 mg/kg IP, 5 minutes, read-out: Decrease in immobility (as %) vs the controls

Structure (SMILES) | inhibition in vivo at 30 mg/kg
N[C@@H](CCC(=O)O)C(=O)NCCC12CC3CC(CC(C3)C1)C2 [Compound 16] | 98%
N[C@@H](CC(=O)O)C(=O)NCCC12CC3CC(CC(C3)C1)C2 [Compound 43] | 93%

same assay, conditions: IP

Structure (SMILES) | Antidepressant activity (in words)
N[C@@H](CCC(=O)O)C(=O)NCCC12CC3CC(CC(C3)C1)C2 [Compound 16] | antidepressant effect of the same order of magnitude as the comparison drug used, amitriptyline
N[C@@H](CC(=O)O)C(=O)NCCC12CC3CC(CC(C3)C1)C2 [Compound 43] | antidepressant effect of the same order of magnitude as the comparison drug used, amitriptyline

same assay, conditions: IP, read-out: ED50 (dose antagonising immobility time by 50%)

Structure (SMILES) | ED50
N[C@@H](CCC(=O)O)C(=O)NCCC12CC3CC(CC(C3)C1)C2 [Compound 16] | 3.9 mg/kg
N[C@@H](CC(=O)O)C(=O)NCCC12CC3CC(CC(C3)C1)C2 [Compound 43] | 6.4 mg/kg

test system: not listed separately; experiment: Memory-enhancement activity in the passive avoidance test in the rat; format: in vivo, rat (male Wistar); details: 96 h; 0.1 mg/kg IP, rat, retest on the 4th day, 6 treatments; read-out: % variation vs controls (FS) in step through latency
Procedure: 2) Memory-enhancement activity in the "passive avoidance" test in the rat
A "passive avoidance" model was used, which required a single "step-through" situation and a retest of the "retention memory" 72 h after the training.
Male Wistar rats which weighed about 200 g and had not fasted, were used. The test consisted of evaluating the degree of memory of an animal after it had been trained as follows.
The equipment used was a shuttle box modified thus: one compartment was lined with black card including the cover, and a 60 W lamp was disposed above the other, spaced from the grid floor by about 40 cm. The two compartments were divided by an automatic guillotine-like door. Each animal was placed in the compartment in the light with the guillotine-likedoor open. From this moment, the time taken by the rat to go into the compartment lined with black card (the dark compartment) (the step-throughlatency=STL) was measured. The animals which took more than 30 sec to go into the dark were discarded. Once they had gone into the dark, the door was lowered automatically and a=0.1 mA shock lasting 5 sec (a foot shock=FS) started. After 10 sec, the animal was removed from the shuttle box.
Upon completion, the animals were selected randomly in homogeneous groups and treated with the products.
The retest to determine memory was made after 72 hours. The products were administered chronically in the preselected manner twice per day and the last treatment 30 min before the retest (6 treatments altogether).
The memory-retention test (the retest) consisted of placing each animal, treated 30 min beforehand with a physiological solution or with the product, in the compartment which was not lined with black card for 30 sec.
The results are expressed as the percentage variation of the STL (in seconds) of the groups treated in comparison with the control group by means of this formula: [formula]

Structure (SMILES) | change in vivo at 0.1 mg/kg
N[C@@H](CCC(=O)O)C(=O)NCCC12CC3CC(CC(C3)C1)C2 [Compound 16] | 11%
N[C@@H](CC(=O)O)C(=O)NCCC12CC3CC(CC(C3)C1)C2 [Compound 43] | 10%

same assay, conditions: 96 h; 1 mg/kg IP, rat, retest on the 4th day, 6 treatments; read-out: % variation vs controls (FS) in step through latency

Structure (SMILES) | change in vivo at 1 mg/kg
N[C@@H](CCC(=O)O)C(=O)NCCC12CC3CC(CC(C3)C1)C2 [Compound 16] | 21%
N[C@@H](CC(=O)O)C(=O)NCCC12CC3CC(CC(C3)C1)C2 [Compound 43] | 16%

same assay, conditions: 96 h; 10 mg/kg IP, rat, retest on the 4th day, 6 treatments; read-out: % variation vs controls (FS) in step through latency

Structure (SMILES) | change in vivo at 10 mg/kg
N[C@@H](CCC(=O)O)C(=O)NCCC12CC3CC(CC(C3)C1)C2 [Compound 16] | 57%
N[C@@H](CC(=O)O)C(=O)NCCC12CC3CC(CC(C3)C1)C2 [Compound 43] | 29%

same assay, conditions: IP, rat; read-out: ED30 (dose increasing the latency time (STL) by 30%)

Structure (SMILES) | ED30
N[C@@H](CCC(=O)O)C(=O)NCCC12CC3CC(CC(C3)C1)C2 [Compound 16] | 1 mg/kg
N[C@@H](CC(=O)O)C(=O)NCCC12CC3CC(CC(C3)C1)C2 [Compound 43] | 16.9 mg/kg

same assay, conditions: rat, IP, retest on the 4th day

Structure (SMILES) | Activity in increasing the avoidance time (in words)
N[C@@H](CCC(=O)O)C(=O)NCCC12CC3CC(CC(C3)C1)C2 [Compound 16] | considerable activity in increasing the avoidance time

test system: not listed separately; experiment: Antiamnesic activity in the mouse (step-down passive avoidance, amnesia induced by ECS); format: in vivo, mouse (CD1 male); details: OS, mouse
Text: 1) Antiamnesic activity in the mouse (step-down passive avoidance)
An electroconvulsive shock (ECS) produces retrograde amnesia in the test animal if applied immediately after the training received, for example, a harmful stimulus of a suitable intensity.
The object of the experiment was to study the effects of the compounds of the invention in antagonizing the amnesic effect of an ECS on the short-term memory consolidation process.
CD1 male mice which weighed about 30-35 g, and had not fasted were used. The equipment used was a rectangular plexiglass cage (21×21×40cm) with an electrifiable grid floor and a wooden cube (4×4×4 cm) fixed in the centre of the cage. The animals were treated orally with the product under test 60 minutes before the training.
The mouse was placed delicately on the wooden cube and the time it took to descend to the grid floor (SDL=step-down latency) was measured. When all four of the animal's paws were resting on the floor the continuous 0.2 mA shock started and the time taken by The mouse to remount the wooden cube (EL=escape latency) was measured.
The animals with an SDL of between 3 and 30 sec and with an EL of between 3 and 60 sec were used for retesting.
Immediately afterwards, a transcorneal ECS was applied with the use of the following parameters: amperage 15 mA, frequency 50 Hz, duration of the train of pulses 0.4 sec. duration of each individual pulse 1 msec., interval between pulses 20 msec. As well as the groups treated with ECS, a control group without ECS and a control group with ECS were used.
The retest was carried out after 24 h.
The results are expressed as the percentage variation of the SDL of the treated groups in comparison with the control group by means of this formula: [formula]

Structure (SMILES) | Antiamnesic activity (in words)
N[C@@H](CCC(=O)O)C(=O)NCCC12CC3CC(CC(C3)C1)C2 [Compound 16] | particularly remarkable
N[C@@H](CC(=O)O)C(=O)NCCC12CC3CC(CC(C3)C1)C2 [Compound 43] | less active

same assay, conditions: po; 0.1 mg/kg OS, mouse, retest 24 h after training; read-out: Reversal of the amnesia (% vs controls), as the increase in the Step Down Latency

Structure (SMILES) | change in vivo at 0.1 mg/kg
N[C@@H](CCC(=O)O)C(=O)NCCC12CC3CC(CC(C3)C1)C2 [Compound 16] | 0%

same assay, conditions: po; 0.3 mg/kg OS, mouse, retest 24 h after training; read-out: Reversal of the amnesia (% vs controls), as the increase in the Step Down Latency

Structure (SMILES) | change in vivo at 0.3 mg/kg
N[C@@H](CC(=O)O)C(=O)NCCC12CC3CC(CC(C3)C1)C2 [Compound 43] | 13%

same assay, conditions: po; 1 mg/kg OS, mouse, retest 24 h after training; read-out: Reversal of the amnesia (% vs controls), as the increase in the Step Down Latency

Structure (SMILES) | change in vivo at 1 mg/kg
N[C@@H](CCC(=O)O)C(=O)NCCC12CC3CC(CC(C3)C1)C2 [Compound 16] | 47%

same assay, conditions: po; 3 mg/kg OS, mouse, retest 24 h after training; read-out: Reversal of the amnesia (% vs controls), as the increase in the Step Down Latency

Structure (SMILES) | change in vivo at 3 mg/kg
N[C@@H](CCC(=O)O)C(=O)NCCC12CC3CC(CC(C3)C1)C2 [Compound 16] | 46%
N[C@@H](CC(=O)O)C(=O)NCCC12CC3CC(CC(C3)C1)C2 [Compound 43] | 19%

same assay, conditions: po; 10 mg/kg OS, mouse, retest 24 h after training; read-out: Reversal of the amnesia (% vs controls), as the increase in the Step Down Latency

Structure (SMILES) | change in vivo at 10 mg/kg
N[C@@H](CCC(=O)O)C(=O)NCCC12CC3CC(CC(C3)C1)C2 [Compound 16] | 50%

same assay, conditions: po; 30 mg/kg OS, mouse, retest 24 h after training; read-out: Reversal of the amnesia (% vs controls), as the increase in the Step Down Latency

Structure (SMILES) | change in vivo at 30 mg/kg
N[C@@H](CCC(=O)O)C(=O)NCCC12CC3CC(CC(C3)C1)C2 [Compound 16] | 73%
N[C@@H](CC(=O)O)C(=O)NCCC12CC3CC(CC(C3)C1)C2 [Compound 43] | 53%

same assay, conditions: po; OS, mouse, 60 min before training; read-out: ID50 (antiamnesic activity, dose inhibiting the amnesic effect of the ECS by 50%)

Structure (SMILES) | ED50
N[C@@H](CCC(=O)O)C(=O)NCCC12CC3CC(CC(C3)C1)C2 [Compound 16] | 4.6 mg/kg
N[C@@H](CC(=O)O)C(=O)NCCC12CC3CC(CC(C3)C1)C2 [Compound 43] | 38.3 mg/kg

test system: excitor amino-acid receptors of cortical membranes ("forebrain") of rats; experiment: Inhibition of the specific binding of [3H]-glutamate to rat forebrain membranes; details: rat cortical membranes
Text: 6) Studies on binding to rat "forebrain" membranes
L-glutamate recognizes all three receptor subtypes indicated above, al though not selectively. It is therefore desirable to evaluate the capacity of each of the compounds of the invention to interact with the excitor amino-acid receptors of the CNS.
"Forebrain", that is, the cerebral cortex and the hippocampus, were selected as the receptor tissue and ^3 H-L-glutamate as the ligand for marking this heterogenous receptor population.
Rat cerebral tissue (forebrain without striated tissue) was therefore homogeneised cold in tris buffer at pH 7.4. After washing and centrifuging, the final pellet was resuspended in 50 volumes of tris HCl binding buffer at 7.1. 0.5 ml of receptor membrane thus obtained were then incubated, together with the radioactive tracer and the compounds under test, for 20 min at 37° C. The reaction was terminated by separating the bound radio-ligand from the free radio-ligand by filteration on glass-fibre filters which, after washing, were counted in a liquid scintillator (a β-counter) thus determining the radioactivity associated with the pellet. The specific binding was determined as the difference between the binding in the absence and in the presence of cold 3.6 mM L-glutamate.

Structure (SMILES) | Activity in inhibiting the binding of glutamate (in words)
N[C@@H](CCC(=O)O)C(=O)NCCC12CC3CC(CC(C3)C1)C2 [Compound 16] | considerable activity in inhibiting the binding of the glutamate

same assay, conditions: rat forebrain membranes, 20 min, 37° C., pH 7.1

Structure (SMILES) | IC50
N[C@@H](CCC(=O)O)C(=O)NCCC12CC3CC(CC(C3)C1)C2 [Compound 16] | 15 µM
N[C@@H](CC(=O)O)C(=O)NCCC12CC3CC(CC(C3)C1)C2 [Compound 43] | 33.5 µM
